Consider 89 compounds from a melting point compilation (Tetko et al.; mined from patent text by program, amines drawn as free bases though some values may be those of a salt).

The term melting point denotes the temperature, or range, at which the solid turns liquid. The compound `Nc1cccc(-c2ccc(CCNCc3cccc(Cl)c3)c3ccccc23)n1` yielded a melting point of 60 to 75 °C. The value for `CC(C)(N)c1ccc(-c2nc(Nc3ccc(F)cc3F)ncc2C#N)cc1` was 203 °C. The figure for `O=C(c1ccccc1)C(c1ccc(Cl)cc1)c1c(Cl)cc(-n2ncc(=O)[nH]c2=O)cc1Cl` (centres undefined) is 143 °C; for `O=C(O)C(Oc1ccc(Cl)c(C(F)(F)F)c1)c1ccc(Cl)cc1` (centres undefined) it is 132 °C; for `CNc1nc2ccccc2cc1[N+](=O)[O-]` it is 160 °C. Compound `CCN(CC)C(=O)CCS(=O)(=O)c1cc(-c2ccccc2)nc2ccccc12` had a melting point of 100 °C. For the compound `FC(F)(F)c1cccc(OC(c2ccc(Cl)cc2)c2nnn[nH]2)c1` (centres undefined), the melting point is 124 to 126 °C. The figure for `CCc1ccc(CCOc2ccc(NC(=O)N(C)OC)cc2)nc1` is 90.5 to 92 °C; for `CCc1c(CC)n(Cc2ccccc2Cl)c2cc(C(=O)OC)ccc12` it is 86 to 88 °C.

Take `CC(c1ccc(Oc2ccccc2)cc1)N(O)C(N)=O` (centres undefined): the melting point was in the range of 118 to 119 °C. The value for `CCN(CCCC12CC3CC(CC(C3)C1)C2)C(=O)NCCCc1ccncc1` was 97.5 to 98.2 °C; that for `CC(C)(C)OC(=O)N1CCC2(CC1)CC(c1ncccc1Cl)=NO2` was 97 to 102 °C.

In the case of `O=C(c1ccccc1)c1cccc2c1SCC2C(=O)O` (centres undefined), the melting point is 153 to 156 °C. The value for `COC1(OCCc2nc(C(C)C)c(Sc3cc(Cl)cc(Cl)c3)n2C)C2CC3CC(C2)CC1C3` (centres undefined) was 74.5 to 76 °C; that for `O=C1CC(S(=O)Cc2ccccc2)N1CCCc1ccccc1` (centres undefined) was 93 to 96 °C; that for `C=CCn1c(=O)c(C(=O)OCC)c(N)c2cccnc21` was 161 to 164 °C. The figure for `COC(=O)c1cn(C2CC2)c2cc(F)c(F)cc2c1=O` is 223 to 224 °C; for `Cc1ccnc(CSc2nc3ccccc3c(=O)n2-c2ccccc2)c1` it is 145 to 150 °C. The figure for `CCCOc1ccc([N+](=O)[O-])c(C)c1Cl` is 42 to 43 °C. Turning to `O=C(O)C1CCCN1C(=O)CCc1cccc(-c2nc(=O)c3ccccc3s2)n1` (centres undefined), the melting point fell in the range of 210 to 211 °C. The value for `Cn1c(NCCOS(C)(=O)=O)cc(=O)n(C)c1=O` was 169 to 170 °C.

Consider `CC(=O)n1ccn(C(C)=O)c1=O`, for which the melting point was 106 °C. The value for `CC(C)C(C)(NC(=O)c1nc2ccc(OC(F)F)cc2cc1C(=O)O)C(N)=O` (centres undefined) was 194 to 196 °C. Consider `Cc1ccc(Cl)cc1-c1cc(F)cc2c1O[C@@H](CN)C2`, for which the melting point is 148 to 150 °C. The figure for `O=C1OC(=O)c2c(F)cc(F)cc21` is 87 to 89 °C; for `COc1ccc(Nc2nc(Nc3ccc(OC)c(Cl)c3)nc(OCC3CCCCC3)n2)cc1Cl` it is 188 °C; for `COc1cc2c3ccc(OC)c(OC)c3n(C(=O)c3ccc(-c4ccccc4)cc3)c2cc1OC` it is 150 to 153 °C.

`Cc1ccc2sc3cc(C(C)(C)[N+](=O)[O-])ccc3c(=O)c2c1` gave a melting point of 170 to 173 °C.

`C#Cc1cc(Cl)cc(Cl)c1` registered a melting point of 80 to 81.5 °C.

The compound `COc1ccc(C(CCN(C)C)c2ncc[nH]2)cc1` (centres undefined) registered a melting point of 131 to 133 °C. The value for `CC(C(=O)O)c1cccc(C(=O)c2ccccc2)c1[N+](=O)[O-]` (centres undefined) was 177 to 179 °C. The value for `O=C(NC(O)C(F)(F)F)c1snc(Cl)c1Cl` (centres undefined) was 90 to 93 °C. On to `CCOCC(O)COc1cccc2oc(-c3ccccc3)cc(=O)c12` (centres undefined), for which the melting point was 85 to 86.5 °C. The value for `Oc1ccc2c(c1O)OCC(c1cccc(C(F)(F)F)c1)C2` (centres undefined) was 99 to 100 °C; that for `C[C@@H](S[C@H]1CO[C@H](/C=C/c2ccc(C(F)(F)F)cc2)OC1)[C@](O)(Cn1cncn1)c1ccc(F)cc1F` was 73 to 75 °C. The value for `COCCn1nc2c(N)nc3ncccc3c2c1CC1CCOCC1` was 230 to 233 °C; that for `COc1ccc(-c2cc(OCC(=O)O)nc(Nc3ccc(OC)c(Cl)c3)n2)cc1` was 258 to 260 °C. The figure for `O=[N+]([O-])c1ccc(C(Cl)=NNc2ccccc2)cc1` is 157 to 158 °C; for `CCOc1ccc(/C=C/c2nc3c([nH]2)c(=O)n(CC)c(=O)n3CC)cc1` it is 297 to 299 °C; for `Cc1nc(N)sc1S(=O)(=O)NC(C)(C)CO` it is 146 °C. `CN(C)CCSc1cc(NC(=O)OC(C)(C)C)c([N+](=O)[O-])cc1I`: the melting point was found to be 144 °C. Compound `CCOC(=O)C(C)=Cc1ccc([N+](=O)[O-])cc1` showed a melting point of 75 °C. The figure for `c1ccc2c(c1)c(N1CCOCC1)nc1c(-c3nc(C4CC4)no3)ncn12` is 189 to 191 °C. The value for `Cc1cc(-c2ccccc2)n2nc(SC(F)(F)F)nc2n1` was 91 to 93 °C; that for `COc1cccc2c(=O)cc(-c3ccc(O)cc3)oc12` was 281 to 283 °C; that for `CC(C(=O)O)c1ccc2c(c1)CC(C)(C)C2` (centres undefined) was 180 to 183 °C. The figure for `CN(C)C1CCN(c2nc3c(cc2F)c(=O)c(C(=O)O)cn3CCF)C1` (centres undefined) is 247 to 249 °C; for `O=C(c1ccc(F)cc1)C1CCN(CCCC2CCc3onc(-c4ccc(Cl)cc4)c3C2O)CC1` (centres undefined) it is 152 to 155 °C; for `CC(=O)OCC1OC(OCC(=O)c2cc(OCc3ccccc3)c(OCc3ccccc3)c(OCc3ccccc3)c2)C(OC(C)=O)C(OC(C)=O)C1OC(C)=O` (centres undefined) it is 156 to 158 °C. `COc1cc(C(=O)/C=C/c2ccc3c(c2)OCO3)cc(OC)c1OC` returned a melting point of 135 °C.

Take `COc1c(N2CCC(N(C)C)C(C)C2)c(F)c(N)c2c(=O)c(C(=O)O)cn(C3CC3)c12` (centres undefined): the melting point turned out to be 210 °C. The value for `N#CC(C#N)=C1Sc2nc3ccc(C#N)cc3nc2S1` was 278 to 281 °C. In the case of `O=C1C=C(c2c[nH]c3ccccc23)C(=O)O1`, the melting point fell in the range of 210 to 214 °C. `CCCn1nnn(-c2cc(OCC#CI)c(Cl)cc2Cl)c1=O` registered a melting point of 134 to 138 °C. The figure for `CN1CCN(CNc2nc(OCc3ccc(F)cc3)ncc2F)CC1` is 125 to 126 °C. The figure for `Cc1ccc(S(=O)(=O)N(Cc2cc(C(C)(C)C)c(O)c(C(C)(C)C)c2)c2ccc(Cl)nc2)cc1` is 152 to 153 °C; for `C#CCN(Cc1ccc2nc[nH]c(=O)c2c1)c1ccc(C(=O)NCc2cccnc2)cc1` it is 137 to 139 °C; for `CSc1nc(-c2ccncc2)nc(=O)n1C` it is 216 to 218 °C.

Take `CC1(c2cccc3c2CCc2ccccc2C3=O)OCCO1`: the melting point was in the range of 144 to 145 °C. The value for `CCC(N)C(=O)Nc1c(C)cccc1C` (centres undefined) was 48 to 49 °C.

The compound `O=C(NOCCO)c1ccc(F)cc1Nc1ccc(I)cc1F` gave a melting point of 117 to 119 °C. The compound `COc1ccc(C(=O)C=Cc2ccccc2F)c(OC)c1OC` showed a melting point of 75 to 75.8 °C. The figure for `CC(C)(C)OC(=O)N1CCN(CCO[Si](C)(C)C(C)(C)C)C1=O` is 35.5 to 45.5 °C; for `CC(=O)NC[C@H]1CN(c2ccc(N3CCC4(CCOCCO4)CC3)c(F)c2)C(=O)O1` it is 182 to 184 °C; for `CCC(C)C(CN[C@@H](Cc1ccccc1)C(=O)OCc1ccccc1)NC(=O)OC(C)(C)C` (some centres undefined) it is 53 to 55 °C. The figure for `CCCc1c(OCCCCCC(=O)c2cc(C)c(OC)c(OC)c2C)ccc(C(=O)O)c1O` is 92 to 94 °C. Consider `COC(=O)Cn1c(C(=O)Nc2nc(-c3cc(OC)c(Cl)cc3OC)c(CCC3CCCCC3)s2)cc2cc(C)cc(C)c21`, for which the melting point is 193 to 195 °C. The value for `CNC(=O)CCCc1cncc2ccc(OC)cc12` was 117 to 119 °C; that for `C#CCOC(=O)[C@H](Cc1c[nH]cn1)NC(=O)C(Cc1cccc2ccccc12)Cc1cccc2ccccc12` was 187 to 189 °C; that for `CC(c1ccc(O)cc1)(c1ccc(O)cc1)C(F)(F)F` was 93 to 94.5 °C.

`O=C(Nc1ccc(-n2nc(C(F)(F)F)cc2C(F)(F)F)cc1)c1ccc(C(F)(F)F)cc1C(F)(F)F` returned a melting point of 200 to 201 °C. The value for `CN(C1=NC(=O)C(=O)S1)c1ccc(-c2ncn(-c3ccc(OC(F)(F)F)cc3)n2)cc1` was 114 to 118 °C; that for `O=C(Nc1cccc(S(=O)(=O)NC2CC2)c1)c1cnn2c(C(F)(F)F)cc(-c3ccc(Cl)cc3)nc12` was 257 °C. `Oc1noc2ncccc12` came in with a melting point of 258 °C. The figure for `OCc1ccc2c(n1)COC(c1ccccc1)O2` (centres undefined) is 85 to 89 °C. The figure for `CON1C(C)(C)CC(O)CC1(C)C` is 92 to 93 °C; for `NS(=O)(=O)c1cc(C(=O)OC[C@@H]2CCCN2N=O)c(NCc2ccco2)cc1Cl` it is 79 to 81 °C. `O=C(Nc1ccccc1)N(Cc1ccc(Br)cc1)C1CCCC1` yielded a melting point of 130 to 132 °C. `Cc1oc(-c2ccc(Cl)cc2)nc1COc1cccc(/C=C/C(C)N(O)C(N)=O)c1` (centres undefined) showed a melting point of 98 to 99 °C. The value for `CCC(C)(OCc1nn(Cc2ccccc2)c2ccccc12)C(=O)O` (centres undefined) was 66 to 67 °C; that for `COC(=O)CCCNS(=O)(=O)c1cccc2c([N+](=O)[O-])cccc12` was 102 to 104 °C; that for `Cc1oc(-c2ccccc2)nc1COc1ccc(CON=C(CCCCCCC(=O)O)c2ccc(Cl)cc2)cc1` was 54 to 57 °C.

In turn, `N#Cc1c2ccccc2c(C=O)c2ccccc12` returned a melting point of 270 to 275 °C. The value for `CCOC(=O)C1C(=O)CC(C)(O)C(C(=O)OCC)C1c1cccc2oc3c(c12)CCCC3` (centres undefined) was 155 to 157 °C; that for `Cc1c(C(=O)N(C)c2ccccc2)nc2n1CCc1ccccc1C2OC1CCN(C)CC1` (centres undefined) was 75 °C. The value for `COc1ccc2[nH]nc(N3CCN(C[C@@H](O)COc4cccc(-c5noc6ccsc56)c4)CC3)c2c1` was 84 to 86 °C; that for `Cc1ccc(S(=O)(=O)NC[C@H](C)N)cc1` was 82 to 86 °C. The value for `COC(=O)c1ccc2nc(C(F)(F)F)c(S(C)(=O)=O)nc2c1` was 143 to 144 °C; that for `C1CCC(C2CNCCNCCNCCNCCN2)CC1` (centres undefined) was 67 to 69.5 °C.
